Data as given in patent US5556744A, “Methods and compositions for diagnosing and treating certain HIV infected patients” (The Trustees of the University of Pennsylvania, priority 1994, dated 1996).

System: maternal HIV+ sera (antibodies)
Assay: RIA / ELISA binding of maternal HIV+ sera to gp120 and gp41 peptides (Example 3)
Design: species or system human
Description: Radioimmunoassay (RIA) and enzyme-linked immunosorbent assay (ELISA) were performed by standard methodologies [E. Engvall, Meth. Immunol., 70:419-439 (1980); S. K. Pierce et al, J. Exp. Med., 144:1254-1262 (1976)]. Peptides were dissolved in 0.05M carbonate-bicarbonate buffer (pH 9.6) at a concentration of 10 μg/ml. Fifty μl (500 ng) of the peptides were immobilized in 96 well polyvinylchloride plates (Dynatech Laboratories, Inc.) overnight at 4° C. Plates were washed and non-specific sites were blocked with PBS containing 1% BSA overnight at 4° C.
Dilutions of HIV positive maternal sera were made in blocking buffer at dilutions of 1:50 and 1:500 and incubated in peptide coated plates overnight at 4° C. Plates were washed with PBS and incubated with 75,000 cpm of ^125 I-labelled goat anti-human IgG. The antibody was iodinated by a chloramine T method [W. V. Williams et al, Proc. Natl. Acad. Sci. USA, 85:6488-6492 (1988)]. Plates were washed, dried and counted in a gamma counter to measure specific binding. Normal human serum (i.e., HIV seronegative) was used as a control.
Alternatively, ELISA assays were performed in polystyrene plates (Dynatech Laboratories, Inc) in which 0.05% Tween 20 (Sigma Chemical Co.) was included in the washing, blocking and dilution buffers. The secondary antibody used was goat […] Ig conjugated to horseradish peroxidase (HRP) (Sigma Chemical Co). The substrate used for color development was 3,3',5,5' tetramethyl-benzidine dihydrochloride (TMB) (Sigma Chemical Co). Absorbance of samples was measured in a Dynatech MR5000 (Dynatech Laboratories, Inc.) plate reader and expressed as an optical density at wavelength of 450 nm (OD450).
The following key is used for the designation of specific binding of the maternal sera samples to the peptides: The minus sign, -, is equivalent to the specific OD450 or cpm of sera sample binding to peptide divided by the specific OD450 or cpm of NHS sample binding to peptide, which value is less than 2. The plus sign, +, is equivalent to the specific OD450 or cpm of sera sample binding to peptide divided by the specific OD450 or cpm of NHS sample binding to peptide, which value is between 2 to 3.
Specific binding is defined as the difference between the OD450 or cpm of sera to wells with peptide and the OD450 or cpm of sera to wells without peptide.
Comparisons of number of peptides which bound maternal serum samples were made between the transmission group and the nontransmission group. The data was analyzed using the unpaired student's test. For the determination of differences in the binding of specific peptides between transmission and non-transmission groups, the Spearman's rank-order correlation test was performed.

[1] = Serum No. 1, Non-Transmission Group
[2] = Serum No. 2, Non-Transmission Group
[3] = Serum No. 3, Non-Transmission Group
[4] = Serum No. 4, Transmission Group
[5] = Serum No. 5, Transmission Group
[6] = Serum No. 6, Non-Transmission Group
[7] = Serum No. 7, Non-Transmission Group
[8] = Serum No. 8, Non-Transmission Group
[9] = Serum No. 9, Non-Transmission Group
[10] = Serum No. 10, Transmission Group
[11] = Serum No. 11, Non-Transmission Group
[12] = Serum No. 12, Non-Transmission Group
[13] = Serum No. 13, Transmission Group
[14] = Serum No. 14, Transmission Group
[15] = Serum No. 15, Transmission Group
[16] = Serum No. 16, Non-Transmission Group
[17] = Serum No. 17, Non-Transmission Group
[18] = Serum No. 18, Non-Transmission Group
[19] = Serum No. 19, Transmission Group
[20] = Serum No. 20, Non-Transmission Group

Row | Sequence | Binding of maternal HIV+ serum to peptide (sera/NHS ratio) [1] | Binding of maternal HIV+ serum to peptide (sera/NHS ratio) [2] | Binding of maternal HIV+ serum to peptide (sera/NHS ratio) [3] | Binding of maternal HIV+ serum to peptide (sera/NHS ratio) [4] | Binding of maternal HIV+ serum to peptide (sera/NHS ratio) [5] | Binding of maternal HIV+ serum to peptide (sera/NHS ratio) [6] | Binding of maternal HIV+ serum to peptide (sera/NHS ratio) [7] | Binding of maternal HIV+ serum to peptide (sera/NHS ratio) [8] | Binding of maternal HIV+ serum to peptide (sera/NHS ratio) [9] | Binding of maternal HIV+ serum to peptide (sera/NHS ratio) [10] | Binding of maternal HIV+ serum to peptide (sera/NHS ratio) [11] | Binding of maternal HIV+ serum to peptide (sera/NHS ratio) [12] | Binding of maternal HIV+ serum to peptide (sera/NHS ratio) [13] | Binding of maternal HIV+ serum to peptide (sera/NHS ratio) [14] | Binding of maternal HIV+ serum to peptide (sera/NHS ratio) [15] | Binding of maternal HIV+ serum to peptide (sera/NHS ratio) [16] | Binding of maternal HIV+ serum to peptide (sera/NHS ratio) [17] | Binding of maternal HIV+ serum to peptide (sera/NHS ratio) [18] | Binding of maternal HIV+ serum to peptide (sera/NHS ratio) [19] | Binding of maternal HIV+ serum to peptide (sera/NHS ratio) [20] | other results
1 | KLICTTQVPWNASWS [Peptide 123] | + (which value is between 2 to 3) | - (specific OD450 or cpm of sera sample binding to peptide divided by the specific OD450 or cpm of NHS sample binding to peptide, which value is less than 2) | - (specific OD450 or cpm of sera sample binding to peptide divided by the specific OD450 or cpm of NHS sample binding to peptide, which value is less than 2) | - (specific OD450 or cpm of sera sample binding to peptide divided by the specific OD450 or cpm of NHS sample binding to peptide, which value is less than 2) | - (specific OD450 or cpm of sera sample binding to peptide divided by the specific OD450 or cpm of NHS sample binding to peptide, which value is less than 2) | - (specific OD450 or cpm of sera sample binding to peptide divided by the specific OD450 or cpm of NHS sample binding to peptide, which value is less than 2) | - (specific OD450 or cpm of sera sample binding to peptide divided by the specific OD450 or cpm of NHS sample binding to peptide, which value is less than 2) | - (specific OD450 or cpm of sera sample binding to peptide divided by the specific OD450 or cpm of NHS sample binding to peptide, which value is less than 2) | - (specific OD450 or cpm of sera sample binding to peptide divided by the specific OD450 or cpm of NHS sample binding to peptide, which value is less than 2) | - (specific OD450 or cpm of sera sample binding to peptide divided by the specific OD450 or cpm of NHS sample binding to peptide, which value is less than 2) | - (specific OD450 or cpm of sera sample binding to peptide divided by the specific OD450 or cpm of NHS sample binding to peptide, which value is less than 2) | - (specific OD450 or cpm of sera sample binding to peptide divided by the specific OD450 or cpm of NHS sample binding to peptide, which value is less than 2) | - (specific OD450 or cpm of sera sample binding to peptide divided by the specific OD450 or cpm of NHS sample binding to peptide, which value is less than 2) | - (specific OD450 or cpm of sera sample binding to peptide divided by the specific OD450 or cpm of NHS sample binding to peptide, which value is less than 2) | - (specific OD450 or cpm of sera sample binding to peptide divided by the specific OD450 or cpm of NHS sample binding to peptide, which value is less than 2) | - (specific OD450 or cpm of sera sample binding to peptide divided by the specific OD450 or cpm of NHS sample binding to peptide, which value is less than 2) | - (specific OD450 or cpm of sera sample binding to peptide divided by the specific OD450 or cpm of NHS sample binding to peptide, which value is less than 2) | - (specific OD450 or cpm of sera sample binding to peptide divided by the specific OD450 or cpm of NHS sample binding to peptide, which value is less than 2) | - (specific OD450 or cpm of sera sample binding to peptide divided by the specific OD450 or cpm of NHS sample binding to peptide, which value is less than 2) | - (specific OD450 or cpm of sera sample binding to peptide divided by the specific OD450 or cpm of NHS sample binding to peptide, which value is less than 2) | 
2 | KQFINMWQEVGKAMYAPP [Peptide B138] | + (which value is between 2 to 3) | + (which value is between 2 to 3) | - (specific OD450 or cpm of sera sample binding to peptide divided by the specific OD450 or cpm of NHS sample binding to peptide, which value is less than 2) | + (which value is between 2 to 3) | + (which value is between 2 to 3) | + (which value is between 2 to 3) | ++ (which value is greater than 3) | ++ (which value is greater than 3) | - (specific OD450 or cpm of sera sample binding to peptide divided by the specific OD450 or cpm of NHS sample binding to peptide, which value is less than 2) | - (specific OD450 or cpm of sera sample binding to peptide divided by the specific OD450 or cpm of NHS sample binding to peptide, which value is less than 2) | - (specific OD450 or cpm of sera sample binding to peptide divided by the specific OD450 or cpm of NHS sample binding to peptide, which value is less than 2) | - (specific OD450 or cpm of sera sample binding to peptide divided by the specific OD450 or cpm of NHS sample binding to peptide, which value is less than 2) | - (specific OD450 or cpm of sera sample binding to peptide divided by the specific OD450 or cpm of NHS sample binding to peptide, which value is less than 2) | - (specific OD450 or cpm of sera sample binding to peptide divided by the specific OD450 or cpm of NHS sample binding to peptide, which value is less than 2) | - (specific OD450 or cpm of sera sample binding to peptide divided by the specific OD450 or cpm of NHS sample binding to peptide, which value is less than 2) | - (specific OD450 or cpm of sera sample binding to peptide divided by the specific OD450 or cpm of NHS sample binding to peptide, which value is less than 2) | - (specific OD450 or cpm of sera sample binding to peptide divided by the specific OD450 or cpm of NHS sample binding to peptide, which value is less than 2) | - (specific OD450 or cpm of sera sample binding to peptide divided by the specific OD450 or cpm of NHS sample binding to peptide, which value is less than 2) | - (specific OD450 or cpm of sera sample binding to peptide divided by the specific OD450 or cpm of NHS sample binding to peptide, which value is less than 2) | - (specific OD450 or cpm of sera sample binding to peptide divided by the specific OD450 or cpm of NHS sample binding to peptide, which value is less than 2) | Number of maternal sera binding to peptide (20 maternal sera): Seven; Number of binding maternal sera from the transmission group (vertical transmission group (7 sera)): two
